We go through 11 compounds from ChEMBL document CHEMBL5723035, “Affinity Biochemical Literature for EUbOPEN Chemogenomic Library” (2024).

Non-standard residues stand in square brackets, D forms with d. Residues, ends and D or L forms follow the SMILES beside them. *: point of attachment. Benzoyl(4-OPh) = O=C(c1ccc(Oc2ccccc2)cc1)*; Lys(Et2) = CCN(CC)CCCC[C@H](N)C(=O)O; d(aIle) = CC[C@H](C)[C@@H](N)C(=O)O; Gly(cPent) = N[C@H](C(=O)O)C1CCCC1; NH(propargyl) = C#CCN*

Broadly, the Kd is the constant that tells how readily two partners part at equilibrium. A word on the Ki: it is the equilibrium dissociation constant of an inhibitor or competing ligand from its target. A high value points to a looser hold on the target. A word on the IC50: it is the concentration needed to halve the response being measured.

Assay [1] has as its target T1, Chromobox protein homolog 8 (Homo sapiens, UniProt Q9HC52).
T1 sequence (Q9HC52 whole entry): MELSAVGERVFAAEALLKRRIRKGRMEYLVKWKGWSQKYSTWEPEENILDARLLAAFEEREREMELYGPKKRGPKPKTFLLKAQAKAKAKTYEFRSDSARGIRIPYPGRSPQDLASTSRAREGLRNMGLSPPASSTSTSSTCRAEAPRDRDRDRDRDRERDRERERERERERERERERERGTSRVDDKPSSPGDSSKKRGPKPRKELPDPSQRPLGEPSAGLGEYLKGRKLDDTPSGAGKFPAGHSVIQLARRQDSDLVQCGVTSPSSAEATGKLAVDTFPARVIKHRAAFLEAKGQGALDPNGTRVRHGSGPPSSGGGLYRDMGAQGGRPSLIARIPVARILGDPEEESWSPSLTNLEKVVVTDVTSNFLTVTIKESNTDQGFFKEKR
Kind of assay: Affinity Biochemical interaction: (Fluorescence polarisation (fluorescein conjugated)) EUB0002326a CBX8. Type of assay: functional. Also on record: mode of action Inhibitor, recommended concentration 1 uM. In general terms: In fluorescence polarisation assays a small probe gives low polarisation when free and higher when bound to something large.

Assay [2] deals with T1, Chromobox protein homolog 8. Kind of assay: Affinity Biochemical interaction: (Thermal Shift Assay) EUB0002326a CBX8. Also on record: mode of action Inhibitor, recommended concentration 1 uM.
For assay [3] the target is unchanged. Kind of assay: Affinity Biochemical interaction: (MST (fluorescein-conjugated)) EUB0002326a CBX8. Further details: mode of action Inhibitor, recommended concentration 1 uM.
Assay [4] concerns the target Synaptic vesicular amine transporter (Homo sapiens, UniProt Q05940). The experiment in a line: Affinity Biochemical interaction: (Inhibition of radiolabelled [3H]dopamine uptake) EUB0002590aCl SLC18A2. Further details: mode of action Inhibitor, recommended concentration 1 uM.
Assay [5] addresses T2, Histone-lysine N-methyltransferase SETD7 (Homo sapiens, UniProt Q8WTS6). The experiment in a line: Affinity Biochemical interaction: (inhibition of histone H3(1-21) methylation) EUB0002319a SETD7. Further details: mode of action Inhibitor, recommended concentration 1 uM. It is filed as functional.
For assay [6], the target named is T2, Histone-lysine N-methyltransferase SETD7. The experiment in a line: Affinity Biochemical interaction: (inhibition of histone H3 methylation) EUB0002319a SETD7. It is filed as functional. Also on record: mode of action Inhibitor, recommended concentration 1 uM.
Assay [7] concerns the target T3, Protein arginine N-methyltransferase 5 (Homo sapiens, UniProt O14744). Kind of assay: Affinity Biochemical interaction: (inhibition of histone H4 (1-21) methylation) EUB0002319a PRMT5. Type of assay: functional. Also on record: mode of action Inhibitor, recommended concentration 1 uM.
Assay [8] addresses T3, Protein arginine N-methyltransferase 5. Kind of assay: Affinity Biochemical interaction: (inhibition of histone H4 methylation) EUB0002319a PRMT5. It is filed as functional. Also on record: mode of action Inhibitor, recommended concentration 1 uM.
Assay [9] deals with 3',5'-cyclic-AMP phosphodiesterase 4B (Homo sapiens, UniProt Q07343). Kind of assay: Affinity Biochemical interaction: (radioligand binding assay, inhibition of [3H]cAMP or [3H]cGMP cleavage) EUB0002534a PDE4B. Also on record: mode of action Inhibitor, recommended concentration 1 uM.
3',5'-cyclic-AMP phosphodiesterase 4B, sequence (Q07343 whole entry): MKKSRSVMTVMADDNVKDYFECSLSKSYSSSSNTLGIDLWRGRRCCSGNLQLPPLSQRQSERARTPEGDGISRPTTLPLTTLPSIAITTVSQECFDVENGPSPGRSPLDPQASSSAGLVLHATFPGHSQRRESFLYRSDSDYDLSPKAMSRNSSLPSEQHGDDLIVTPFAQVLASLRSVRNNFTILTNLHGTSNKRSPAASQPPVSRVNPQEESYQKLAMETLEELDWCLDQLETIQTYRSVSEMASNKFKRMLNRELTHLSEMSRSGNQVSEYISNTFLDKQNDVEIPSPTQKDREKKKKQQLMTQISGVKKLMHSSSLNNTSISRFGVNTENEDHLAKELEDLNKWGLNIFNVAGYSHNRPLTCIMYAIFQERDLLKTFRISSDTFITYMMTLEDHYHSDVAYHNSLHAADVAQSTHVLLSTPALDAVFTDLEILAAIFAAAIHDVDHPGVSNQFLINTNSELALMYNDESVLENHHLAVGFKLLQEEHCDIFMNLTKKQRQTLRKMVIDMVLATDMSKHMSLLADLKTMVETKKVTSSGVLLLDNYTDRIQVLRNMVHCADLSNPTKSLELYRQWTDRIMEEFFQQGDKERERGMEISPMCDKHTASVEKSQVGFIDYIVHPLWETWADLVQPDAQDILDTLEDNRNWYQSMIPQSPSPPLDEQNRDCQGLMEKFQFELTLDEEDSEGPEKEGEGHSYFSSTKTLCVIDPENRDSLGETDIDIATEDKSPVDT
The target in assay [10] is 3',5'-cyclic-AMP phosphodiesterase 4A (Homo sapiens, UniProt P27815). The experiment in a line: Affinity Biochemical interaction: (radioligand binding assay, inhibition of [3H]cAMP or [3H]cGMP cleavage) EUB0002534a PDE4A. Also on record: mode of action Inhibitor, recommended concentration 1 uM.
3',5'-cyclic-AMP phosphodiesterase 4A, sequence (P27815 whole entry): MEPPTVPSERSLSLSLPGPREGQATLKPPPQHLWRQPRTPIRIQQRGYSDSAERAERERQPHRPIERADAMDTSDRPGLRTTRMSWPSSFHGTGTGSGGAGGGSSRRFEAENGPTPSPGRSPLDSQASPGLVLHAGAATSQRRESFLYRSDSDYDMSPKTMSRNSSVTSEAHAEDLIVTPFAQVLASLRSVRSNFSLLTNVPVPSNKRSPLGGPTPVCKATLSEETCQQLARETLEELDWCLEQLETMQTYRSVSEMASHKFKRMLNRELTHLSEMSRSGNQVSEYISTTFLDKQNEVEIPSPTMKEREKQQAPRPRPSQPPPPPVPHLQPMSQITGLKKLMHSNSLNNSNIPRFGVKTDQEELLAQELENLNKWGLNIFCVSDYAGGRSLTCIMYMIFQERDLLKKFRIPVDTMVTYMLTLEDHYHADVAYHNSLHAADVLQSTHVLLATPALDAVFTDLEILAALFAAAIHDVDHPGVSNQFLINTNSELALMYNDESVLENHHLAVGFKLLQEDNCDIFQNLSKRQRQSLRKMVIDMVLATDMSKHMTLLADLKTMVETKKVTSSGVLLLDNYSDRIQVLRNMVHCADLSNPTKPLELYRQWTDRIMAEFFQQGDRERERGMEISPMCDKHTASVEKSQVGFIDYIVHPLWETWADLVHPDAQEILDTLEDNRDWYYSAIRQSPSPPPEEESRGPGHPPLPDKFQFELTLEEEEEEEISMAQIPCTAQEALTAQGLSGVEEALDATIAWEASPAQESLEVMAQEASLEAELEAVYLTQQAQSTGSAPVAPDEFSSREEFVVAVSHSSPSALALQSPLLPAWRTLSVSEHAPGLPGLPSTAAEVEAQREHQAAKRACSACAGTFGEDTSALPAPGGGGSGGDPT
Assay [11] has as its target 3',5'-cyclic-AMP phosphodiesterase 4C (Homo sapiens, UniProt Q08493). The experiment in a line: Affinity Biochemical interaction: (radioligand binding assay, inhibition of [3H]cAMP or [3H]cGMP cleavage) EUB0002534a PDE4C. Further details: mode of action Inhibitor, recommended concentration 1 uM.
The target of assay [12] is T4, 3',5'-cyclic-AMP phosphodiesterase 4D (Homo sapiens, UniProt Q08499). The experiment in a line: Affinity Biochemical interaction: (radioligand binding assay, inhibition of [3H]cAMP or [3H]cGMP cleavage) EUB0002534a PDE4D. Further details: mode of action Inhibitor, recommended concentration 1 uM.
T4 sequence (Q08499 whole entry): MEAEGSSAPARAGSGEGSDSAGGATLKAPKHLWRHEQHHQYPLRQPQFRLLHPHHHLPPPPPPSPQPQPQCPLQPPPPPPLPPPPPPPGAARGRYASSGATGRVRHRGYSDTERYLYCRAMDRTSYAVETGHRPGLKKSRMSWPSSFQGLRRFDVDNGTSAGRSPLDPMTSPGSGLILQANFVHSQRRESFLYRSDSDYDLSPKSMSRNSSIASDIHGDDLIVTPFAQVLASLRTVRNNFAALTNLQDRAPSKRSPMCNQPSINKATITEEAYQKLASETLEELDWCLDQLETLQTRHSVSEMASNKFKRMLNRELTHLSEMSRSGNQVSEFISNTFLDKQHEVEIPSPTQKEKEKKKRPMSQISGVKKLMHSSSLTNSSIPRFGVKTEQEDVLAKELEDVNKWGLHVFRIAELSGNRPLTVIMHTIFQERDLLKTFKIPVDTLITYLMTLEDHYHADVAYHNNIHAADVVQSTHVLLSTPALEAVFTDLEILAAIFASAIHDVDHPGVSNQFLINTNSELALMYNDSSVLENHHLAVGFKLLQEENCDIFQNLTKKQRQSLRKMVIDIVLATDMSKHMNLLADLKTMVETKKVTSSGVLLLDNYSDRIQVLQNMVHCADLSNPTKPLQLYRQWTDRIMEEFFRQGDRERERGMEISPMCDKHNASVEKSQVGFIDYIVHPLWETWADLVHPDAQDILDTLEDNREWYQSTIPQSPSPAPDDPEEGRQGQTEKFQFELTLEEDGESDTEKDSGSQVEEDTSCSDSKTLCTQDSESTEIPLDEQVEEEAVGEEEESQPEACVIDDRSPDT
For assay [13], the target named is Triacylglycerol hydrolase DDHD2 (Homo sapiens, UniProt O94830). Kind of assay: Affinity Biochemical interaction: (Gel-based competitive activity-based protein profiling with HT-01 probe and membranes) EUB0002612a DDHD2. It is filed as functional, cell membranes. Further details: mode of action Inhibitor, recommended concentration 1 uM.
The target in assay [14] is Adenosine kinase (Homo sapiens, UniProt P55263). The experiment in a line: Affinity Biochemical interaction: (radiochemical assay, inhibition of AK activity in cell supernatants) EUB0002485aCl ADK. Type of assay: functional, subcellular. Also on record: mode of action Inhibitor, recommended concentration 1 uM.
Assay [15] has as its target Dual specificity calcium/calmodulin-dependent 3',5'-cyclic nucleotide phosphodiesterase 1A (Homo sapiens, UniProt P54750). The experiment in a line: Affinity Biochemical interaction: (inhibition of [3H]cGMP cleavage, scintillation proximity assay) EUB0002562a PDE1A. Also on record: mode of action Inhibitor, recommended concentration 1 uM. It is filed as functional. A general note: In a scintillation proximity assay essentially only radioactivity close to the scintillant gives light.

Assay [16] addresses T4, 3',5'-cyclic-AMP phosphodiesterase 4D. Kind of assay: Affinity Biochemical interaction: ([…]) EUB0002544a PDE4D. Further details: mode of action Inhibitor, recommended concentration 1 uM. Type of assay: cell-free. Background: In equilibrium dialysis free small molecules cross a membrane that holds back macromolecules.
Assay [17] concerns the target Alpha-ketoglutarate-dependent dioxygenase alkB homolog 3 (Homo sapiens, UniProt Q96Q83).
Assay [18] deals with Lysine-specific demethylase 4C (Homo sapiens, UniProt Q9H3R0). Kind of assay: Affinity Biochemical interaction: (AlphaScreen) EUB0002543a KDM4C. It is filed as functional. Also on record: mode of action Inhibitor, recommended concentration 1 uM.
Assay [19] deals with T5, Lysine-specific demethylase 4A (Homo sapiens, UniProt O75164). The experiment in a line: Affinity Biochemical interaction: (AlphaScreen) EUB0002543a KDM4A. Type of assay: functional. Also on record: mode of action Inhibitor, recommended concentration 1 uM.
T5 sequence (O75164 whole entry): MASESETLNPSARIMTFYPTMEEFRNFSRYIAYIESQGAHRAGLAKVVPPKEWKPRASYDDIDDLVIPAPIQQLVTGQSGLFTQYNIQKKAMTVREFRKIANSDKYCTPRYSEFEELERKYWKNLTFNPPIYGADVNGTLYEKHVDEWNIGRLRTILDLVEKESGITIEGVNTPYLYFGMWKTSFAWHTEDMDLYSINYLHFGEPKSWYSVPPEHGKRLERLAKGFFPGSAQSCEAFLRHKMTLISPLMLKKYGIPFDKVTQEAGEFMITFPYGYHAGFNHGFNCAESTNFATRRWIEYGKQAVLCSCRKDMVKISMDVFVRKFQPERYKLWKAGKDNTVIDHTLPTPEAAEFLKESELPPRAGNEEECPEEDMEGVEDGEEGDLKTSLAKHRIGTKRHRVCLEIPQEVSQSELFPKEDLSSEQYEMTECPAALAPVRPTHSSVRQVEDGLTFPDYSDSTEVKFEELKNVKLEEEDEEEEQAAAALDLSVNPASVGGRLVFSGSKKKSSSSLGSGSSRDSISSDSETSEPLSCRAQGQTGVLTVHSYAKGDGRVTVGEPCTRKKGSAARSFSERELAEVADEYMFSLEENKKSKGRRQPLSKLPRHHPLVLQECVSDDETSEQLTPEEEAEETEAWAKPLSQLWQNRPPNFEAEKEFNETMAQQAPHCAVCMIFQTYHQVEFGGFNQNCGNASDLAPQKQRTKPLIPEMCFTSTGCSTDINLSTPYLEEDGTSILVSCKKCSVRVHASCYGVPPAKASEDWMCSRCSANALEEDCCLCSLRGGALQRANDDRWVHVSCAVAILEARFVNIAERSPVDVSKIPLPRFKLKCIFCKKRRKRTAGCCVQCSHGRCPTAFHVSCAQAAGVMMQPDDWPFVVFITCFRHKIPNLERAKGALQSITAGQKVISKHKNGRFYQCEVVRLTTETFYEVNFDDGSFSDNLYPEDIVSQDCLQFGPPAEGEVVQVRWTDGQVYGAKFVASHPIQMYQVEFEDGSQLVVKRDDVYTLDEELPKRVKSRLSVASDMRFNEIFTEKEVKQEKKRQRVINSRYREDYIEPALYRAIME
Assay [20] concerns the target Lysine-specific demethylase 4B (Homo sapiens, UniProt O94953). Kind of assay: Affinity Biochemical interaction: (AlphaScreen) EUB0002543a KDM4B. Type of assay: functional. Further details: mode of action Inhibitor, recommended concentration 1 uM.
Assay [21] deals with T5, Lysine-specific demethylase 4A. Kind of assay: Affinity Biochemical interaction: (Biolayer interferometry) EUB0002543a KDM4A. Also on record: mode of action Inhibitor, recommended concentration 1 uM.
The target of assay [22] is Histone deacetylase 3 (Homo sapiens, UniProt O15379).

T3 sequence (O14744 whole entry): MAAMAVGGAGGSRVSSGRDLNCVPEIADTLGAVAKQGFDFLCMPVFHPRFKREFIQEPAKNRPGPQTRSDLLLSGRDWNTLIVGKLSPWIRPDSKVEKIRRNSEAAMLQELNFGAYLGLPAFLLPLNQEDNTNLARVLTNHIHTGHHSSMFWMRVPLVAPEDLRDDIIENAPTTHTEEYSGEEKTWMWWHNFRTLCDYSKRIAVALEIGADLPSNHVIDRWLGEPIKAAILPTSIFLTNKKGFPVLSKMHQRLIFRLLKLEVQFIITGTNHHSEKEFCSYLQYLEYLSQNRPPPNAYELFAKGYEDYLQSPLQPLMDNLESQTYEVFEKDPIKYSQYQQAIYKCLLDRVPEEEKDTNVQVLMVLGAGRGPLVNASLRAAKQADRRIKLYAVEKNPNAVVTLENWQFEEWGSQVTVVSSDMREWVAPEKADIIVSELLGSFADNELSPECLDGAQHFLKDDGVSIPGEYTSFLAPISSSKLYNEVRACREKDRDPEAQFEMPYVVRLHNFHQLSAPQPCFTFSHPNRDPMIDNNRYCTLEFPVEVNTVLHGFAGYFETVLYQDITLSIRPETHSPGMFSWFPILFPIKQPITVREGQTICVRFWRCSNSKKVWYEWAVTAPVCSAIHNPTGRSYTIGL
T2 sequence (Q8WTS6 whole entry): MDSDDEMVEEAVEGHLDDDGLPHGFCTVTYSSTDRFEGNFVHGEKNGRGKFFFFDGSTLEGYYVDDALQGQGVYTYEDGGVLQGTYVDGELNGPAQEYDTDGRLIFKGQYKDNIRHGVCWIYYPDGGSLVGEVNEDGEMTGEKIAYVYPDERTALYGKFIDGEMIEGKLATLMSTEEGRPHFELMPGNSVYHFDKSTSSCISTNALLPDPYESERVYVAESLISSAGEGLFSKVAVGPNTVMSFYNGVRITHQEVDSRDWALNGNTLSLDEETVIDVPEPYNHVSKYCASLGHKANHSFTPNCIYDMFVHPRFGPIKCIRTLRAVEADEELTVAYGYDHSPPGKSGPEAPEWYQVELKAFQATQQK
Synaptic vesicular amine transporter, sequence (Q05940 whole entry): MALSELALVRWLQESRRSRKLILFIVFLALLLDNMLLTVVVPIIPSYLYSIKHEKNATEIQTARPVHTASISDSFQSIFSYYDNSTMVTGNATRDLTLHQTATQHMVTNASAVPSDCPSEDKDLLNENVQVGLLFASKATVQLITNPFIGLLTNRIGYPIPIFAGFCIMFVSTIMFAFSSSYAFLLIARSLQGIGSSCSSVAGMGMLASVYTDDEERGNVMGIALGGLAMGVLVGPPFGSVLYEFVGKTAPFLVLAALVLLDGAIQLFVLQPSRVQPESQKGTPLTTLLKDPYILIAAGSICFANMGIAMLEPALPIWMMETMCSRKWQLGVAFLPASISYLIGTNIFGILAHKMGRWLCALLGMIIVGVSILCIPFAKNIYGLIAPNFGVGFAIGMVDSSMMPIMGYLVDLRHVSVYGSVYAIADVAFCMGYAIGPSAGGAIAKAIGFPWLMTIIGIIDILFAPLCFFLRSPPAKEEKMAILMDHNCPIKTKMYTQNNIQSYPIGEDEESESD

Regarding `C#CCNC(=O)[C@H](CO)NC(=O)[C@H](CCCCN(CC)CC)NC(=O)[C@H](NC(=O)[C@@H](NC(=O)c1ccc(Oc2ccccc2)cc1)C1CCCC1)[C@@H](C)CC` ({Benzoyl(4-OPh)}-[Gly(cPent)][d(aIle)][Lys(Et2)]S-{NH(propargyl)}), the Kd in assay [1] amounted to 800 nM; in assay [2], 500 nM; in assay [3], 700 nM.
`COc1ccc(CC[C@H]2CCC[C@@H](CCc3ccc(OC)cc3)N2C[C@@H](O)CO)cc1` gave a Ki in assay [4] of 29 nM.
Consider `Nc1ncnc2c1ncn2[C@@H]1O[C@H](C[C@@H](N)CC[C@H](N)C(=O)O)[C@@H](O)[C@H]1O` [SINEFUNGIN], for which the IC50 was determined as 2380 nM in assay [5], 9100 nM in assay [6], 310 nM in assay [7] and 690 nM in assay [8].
As for `Nc1cc2c3c(c1)C(c1ccccc1)=N[C@@H](NC(=O)c1cccnc1)C(=O)N3CC2`, the IC50 was 80 nM in assay [9], 290 nM in assay [10], 560 nM in assay [11] and 90 nM in assay [12].
Take `O=C(N(CCc1ccccc1)C1CCCCC1)n1ncc(-c2ccc(OC(F)(F)F)cc2)n1`: in assay [13], the IC50 was determined as 1.3 nM.
With `Nc1ncnc2nc(-c3ccc(N4CCOCC4)nc3)cc(-c3cccc(Br)c3)c12`, in assay [14], the IC50 turned out to be 3 nM.
In the case of `Cn1c(OC[C@H]2CC[C@H](C(F)(F)F)CC2)nn2c(C3CCOCC3)ncc2c1=O`, in [15], the IC50 stood at 97.6 nM.
The compound `C[C@@H](Oc1ccc(CNC(=O)c2cccnc2Oc2ccc3c(c2)OCO3)c(F)c1)C(=O)O` yielded an IC50 in assay [16] of 37 nM.
`Cc1ccc2[nH]c(-n3nc(C)c(Cc4ccccc4)c3O)nc2c1`: half-maximal inhibition in assay [17] (IC50) was put at 670 nM.
In the case of `CC(C)[C@@H]1NC(=O)[C@H](Cc2ccc(O)cc2)NC(=O)[C@@H](CC(=O)O)NC(=O)S[C@@H](C(=O)O)NC(=O)[C@H]([C@H](C)O)NC(=O)[C@H](Cc2ccc(O)cc2)NC(=O)[C@H](Cc2c[nH]c3ccccc23)NC(=O)[C@H](CCCNC(=N)N)NC(=O)[C@H](Cc2c[nH]c3ccccc23)NC(=O)[C@H](C)NC(=O)[C@H](CO)NC(=O)[C@H](CCCNC(=N)N)NC(=O)[C@H]([C@H](C)O)NC(=O)[C@H](CC(N)=O)NC(=O)[C@H](Cc2ccc(O)cc2)NC1=O`, the IC50 in assay [18] is 39 nM; in [19] it was 42 nM; in [20], 33 nM. In addition, in assay [21], the affinity, expressed as Kd, was 29.8 nM.
In the case of `CN(C)Cc1ccc(S(=O)(=O)n2ccc(/C=C/C(=O)NO)c2)cc1`, the IC50 in assay [22] was 50.1 nM.
